This is an account of results in patent publication EP1339694B1 (F. HOFFMANN-LA ROCHE AG, priority 2000, dated 2002).

This assay deals with T1, Human Platelet IP Receptor (Homo sapiens, UniProt P43119).
T1 construct: 250 ml Platelet Rich Plasma was transferred into 250 ml centrifuge tubes and spun at 6000 g; from tissue; host or cells: membranes prepared from platelets (platelet rich plasma)
Nature of the assay: In vitro Human Platelet IP Receptor Radioligand Binding Assay. How it is done: In vitro Human Platelet IP Receptor Radioligand Binding Assay
The in vitro Human Platelet IP Receptor Binding Assay measures the strength of a potential drug's binding affinity to its intended target.
The following buffers were prepared using the purest available water.
250 ml Platelet Rich Plasma was transferred into 250 ml centrifuge tubes and spun at 6000 g for 10 min at 20 °C. Pellets were then resuspended in IP lysis buffer and homogenized using a polytron(setting 7, 1x20 sec. burst), brought up to a final volume of 180 ml and centrifuged at 40000 g for 15 min at 4 °C. The pellets were then resuspended in IP assay buffer, protein density determined by BCA method (Pierce) and stored in 2.0 ml vials at -80 °C for subsequent assay use.
To obtain at least 80 % specific binding, 50 µg protein/assay tube was used in a competition experiment. The final radioligand concentration was 1 to 3E-8 M.
The membranes were thawed at room temperature and then diluted in assay buffer to the appropriate concentration. First buffer, drug, radioligand, and lastly, membranes were added to the assay tubes. […] The assay tubes were filtered onto 0.3% PEI pre-treated glass fiber filtermats (GF/ B) using Packard Top Count 96 well cell harvester. The tubes were rinsed three times with ice cold 20mM Tris-HCl, 5mM MgCl2, pH=7.4 (3 x 0.5 ml/sample). Bound radioactivity was determined using liquid scintillation counting.

[1] abbreviates: human platelet membranes, radioligand competition, 25 °C for 60 min, read-out: Affinity towards the Human Platelet IP Receptor (pKi) (converted).

Structures are written as SMILES. Read-outs that look alike come from different tables or passages of the source.

T1 sequence (P43119 whole entry): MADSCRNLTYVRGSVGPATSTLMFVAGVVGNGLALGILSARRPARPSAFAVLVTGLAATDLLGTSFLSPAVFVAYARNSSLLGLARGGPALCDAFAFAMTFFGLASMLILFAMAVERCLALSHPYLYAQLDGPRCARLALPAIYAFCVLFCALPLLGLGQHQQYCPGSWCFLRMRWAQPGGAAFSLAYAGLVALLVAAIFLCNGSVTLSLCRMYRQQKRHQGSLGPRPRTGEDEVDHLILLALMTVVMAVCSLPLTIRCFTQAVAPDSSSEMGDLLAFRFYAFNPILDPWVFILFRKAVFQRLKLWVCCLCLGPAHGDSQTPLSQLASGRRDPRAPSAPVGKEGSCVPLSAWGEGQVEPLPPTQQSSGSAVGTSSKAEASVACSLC

`O=C(CCc1ccc(NC2=NCCN2)cc1)c1ccc(N2CCN(C(=O)c3ccco3)CC2)cc1` had a Ki of 0.468 nM. Turning to `O=C(CCc1ccc(NC2=NCCN2)cc1)c1ccc(Oc2ccccc2)cc1`, the Ki under setting [1] was 20 nM. With `O=C(CCc1ccc(NC2=NCCN2)cc1)c1ccc(Cl)cc1Cl` [1-(2,4-dichlorophenyl)-3-[4-(4,5-dihydro-1H-imidazol-2-ylamino)phenyl]-propan-1-one], the Ki under setting [1] was 0.282 nM. The same measure, in the same setting: the same measure for `O=C(CCc1ccc(NC2=NCCN2)cc1)c1ccc(F)cc1F` [1-(2,4-difluorophenyl)-3-[4-(4,5-dihydro-1H-imidazol-2-ylamino)phenyl]-propan-1-one]: 56.2 nM; for `O=C(CCc1ccc(NC2=NCCN2)cc1)c1ccc(Cl)c(Cl)c1` [1-(3,4-dichlorophenyl)-3-[4-(4,5-dihydro-1H-imidazol-2-ylamino)phenyl]-propan-1-one]: 9.55 nM; for `O=C(CCc1ccc(NC2=NCCN2)cc1)c1ccc(F)c(F)c1` [1-(3,4-difluorophenyl)-3-[4-(4,5-dihydro-1H-imidazol-2-ylamino)phenyl]-propan-1-one]: 22.4 nM. The same measure, in the same setting: the same measure for `O=C(CCc1ccc(NC2=NCCN2)cc1)c1cc(F)cc(F)c1` [1-(3,5-difluorophenyl)-3-[4-(4,5-dihydro-1H-imidazol-2-ylamino)phenyl]-propan-1-one]: 0.741 nM; for `O=C(CCc1ccc(NC2=NCCN2)cc1)c1cc(F)c(Cl)cc1Cl` [1-(4,6-dichloro-3-fluorophenyl)-3-[4-(4,5-dihydro-1H-imidazol-2-ylamino)-phenyl]propan-1-one]: 0.708 nM. The same measure, in the same setting: the same measure for `O=C(CCc1ccc(NC2=NCCN2)cc1)c1ccc(Cl)cc1` [1-(4-chlorophenyl)-3-[4-(4,5-dihydro-1H-imidazol-2-ylamino)phenyl]-propan-1-one]: 0.398 nM; for `CC(=O)N1CCN(c2ccc(C(=O)CCc3ccc(NC4=NCCN4)cc3)cc2)CC1` [1-[4-(4-acetylpiperazin-1-yl)phenyl]-3-[4-(4,5-dihydro-1H-imidazol-2-ylamino)-phenyl]propan-1-one]: 6.31 nM. Turning to `O=C(CCc1ccc(NC2=NCCN2)cc1)c1ccc(Cl)c(Cl)c1Cl` [3-[4-(4,5-dihydro-1H-imidazol-2-ylamino)phenyl]-1-(2,3,4-trichlorophenyl)-propan-1-one], the Ki under setting [1] was 1.74 nM. Same read-out and setting: the same measure for `COc1ccc(C(=O)CCc2ccc(NC3=NCCN3)cc2)c(F)c1` [3-[4-(4,5-dihydro-1H-imidazol-2-ylamino)phenyl]-1-(2-fluoro-4-methoxy-phenyl)-propan-1-one]: 1 nM; for `O=C(CCc1ccc(NC2=NCCN2)cc1)c1ccccc1F` [3-[4-(4,5-dihydro-1H-imidazol-2-ylamino)phenyl]-1-(2-fluorophenyl)propan-1-one]: 0.447 nM. Still for that read-out and setting: the same measure for `O=C(CCc1ccc(NC2=NCCN2)cc1)c1cccc(F)c1` [3-[4-(4,5-dihydro-1H-imidazol-2-ylamino)phenyl]-1-(3-fluorophenyl)propan-1-one]: 0.676 nM; for `O=C(CCc1ccc(NC2=NCCN2)cc1)c1ccc(OCc2ccccc2)cc1` [3-[4-(4,5-dihydro-1H-imidazol-2-ylamino)phenyl]-1-(4-benzyloxyphenyl)-propan-1-one]: 11.2 nM; for `CC(C)Oc1ccc(C(=O)CCc2ccc(NC3=NCCN3)cc2)cc1` [3-[4-(4,5-dihydro-1H-imidazol-2-ylamino)phenyl]-1-(4-isopropoxyphenyl)-propan-1-one]: 0.437 nM. As for `O=C(CCc1ccc(NC2=NCCN2)cc1)c1ccc(-c2ccccc2)cc1` [3-[4-(4,5-dihydro-1H-imidazol-2-ylamino)phenyl]-1-(4-phenylphenyl)-propan-1-one], under setting [1], the Ki is 1.48 nM. The same measure, in the same setting: the same measure for `COc1ccc2cc(C(=O)CCc3ccc(NC4=NCCN4)cc3)ccc2c1` [3-[4-(4,5-dihydro-1H-imidazol-2-ylamino)phenyl]-1-(6-methoxynaphthalen-2-yl)-propan-1-one]: 0.427 nM. The same measure, in the same setting: to `O=C(CCc1ccc(NC2=NCCN2)cc1)c1cccc2ccccc12` [3-[4-(4,5-dihydro-1H-imidazol-2-ylamino)phenyl]-1-(naphthalen-1-yl)-propan-1-one] belongs 1.02 nM; to `O=C(CCc1ccc(NC2=NCCN2)cc1)c1ccc2ccccc2c1` [3-[4-(4,5-dihydro-1H-imidazol-2-ylamino)phenyl]-1-(naphthalen-2-yl)propan-1-one], 4.9 nM. In the case of `O=C(CCc1ccc(NC2=NCCN2)cc1)c1ccccc1` [3-[4-(4,5-dihydro-1H-imidazol-2-ylamino)phenyl]-1-(phenyl)propan-1-one], the Ki under setting [1] was 3.16 nM. The same measure, in the same setting: to `CCOC(=O)N1CCN(c2ccc(C(=O)CCc3ccc(NC4=NCCN4)cc3)c(F)c2)CC1` [3-[4-(4,5-dihydro-1H-imidazol-2-ylamino)phenyl]-1-[4-(4-ethoxycarbonyl-piperazin-1-yl)-2-fluorophenyl]propan-1-one] belongs 67.6 nM; to `CCNC(=O)N1CCN(c2ccc(C(=O)CCc3ccc(NC4=NCCN4)cc3)cc2)CC1` [3-[4-(4,5-dihydro-1H-imidazol-2-ylamino)phenyl]-1-[4-(4-ethylamino-carbonyl-piperazin-1-yl)phenyl]propan-1-one], 38.9 nM. On the same count and under the same terms, to `CN1CCN(c2ccc(C(=O)CCc3ccc(NC4=NCCN4)cc3)cc2)CC1` [3-[4-(4,5-dihydro-1H-imidazol-2-ylamino)phenyl]-1-[4-(4-methylpiperazin-1-yl)-phenyl]propan-1-one] belongs 7.08 nM.

Turning to `CCCOC(=O)N1CCN(c2ccc(C(=O)CCc3ccc(NC4=NCCN4)cc3)cc2)CC1` [3-[4-(4,5-dihydro-1H-imidazol-2-ylamino)phenyl]-1-[4-(4-propoxycarbonyl-piperazin-1-yl)phenyl]propan-1-one], the Ki under setting [1] was 58.9 nM. Same read-out and setting: to `O=C(CCc1ccc(NC2=NCCN2)cc1)c1ccc(F)cc1` [Example 1, 3-[4-(4,5-Dihydro-1H-imidazol-2-ylamino)phenyl]-1-(4-fluorophenyl)propan-1-one] belongs 0.316 nM. `O=C(CCc1ccc(NC2=NCCN2)cc1)c1ccc(N2CCOCC2)cc1` [Example 3, 3-[4-(4,5-Dihydro-1H-imidazol-2-ylamino)phenyl]-1-(4-morpholin-4-ylphenyl)-propan-1-one] gave a Ki of 5.25 nM. Turning to `O=C(CCc1ccc(NC2=NCCN2)cc1)c1ccc(N2CCOCC2)cc1F` [Example 4, 3-[4-(4,5-Dihydro-1H-imidazol-2-ylamino)phenyl]-1-(2-fluoro-4-morpholin-4-yl-phenyl)propan-1-one], the Ki under setting [1] is 18.2 nM. For `CCOC(=O)N1CCN(c2ccc(C(=O)CCc3ccc(NC4=NCCN4)cc3)cc2)CC1` [Example 5, 3-[4-(4,5-Dihydro-1H-imidazol-2-ylamino)phenyl]-1-[4-(4-ethoxycarbonyl-piperazin-1-yl)-phenyl]propan-1-one], the Ki under setting [1] is 9.33 nM.

Consider `CS(=O)(=O)N1CCN(c2ccc(C(=O)CCc3ccc(NC4=NCCN4)cc3)cc2)CC1` [Example 6, 3-[4-(4,5-Dihydro-1H-imidazol-2-ylamino)phenyl]-1-[4-(4-methanesulfonyl-piperazin-1-yl)phenyl]propan-1-one], for which the Ki under setting [1] is 28.2 nM.

Take `O=C(CCCc1ccc(NC2=NCCN2)cc1)c1ccc(F)cc1` [Example 8, 4-[4-(4,5-Dihydro-1H-imidazol-2-ylamino)phenyl]-1-(4-fluorophenyl)butan-1-one]: the Ki under setting [1] was 3.09 nM.

As to `O=C(COc1ccc(NC2=NCCN2)cc1)c1ccc2c(c1)OCCO2` [Example 9, 1-(2,3-Dihydrobenzo[1,4]dioxin-6-yl)-2-[4-(4,5-dihydro-1H-imidazol-2-ylamino)-phenoxy] ethanone], the Ki under setting [1] was 44.7 nM. The same measure, in the same setting: to `COc1ccc(C(=O)COc2ccc(NC3=NCCN3)cc2)cc1` [Example 10, 2-[4-(4,5-Dihydro-1H-imidazol-2-ylamino)phenoxy]-1-(4-methoxyphenyl)ethanone] belongs 2.75 nM.
